Results published in patent publication US6727246B2, “1-(aminoalkyl)-3-sulfonylindole-and-indazole derivatives as 5-hydroxytryptamine-6 ligands” (Wyeth, priority 2002, dated 2004).

Target: T1, human cloned 5-HT6 receptors (Homo sapiens, UniProt P50406)
T1 construct: expressed in transfected cells; host or cells: Hela cells (membrane preparation)
Assay: 5-HT6 binding affinity, [3H]-LSD displacement on membranes of Hela cells expressing the cloned receptor
Settings: not given

T1 sequence (P50406 whole entry): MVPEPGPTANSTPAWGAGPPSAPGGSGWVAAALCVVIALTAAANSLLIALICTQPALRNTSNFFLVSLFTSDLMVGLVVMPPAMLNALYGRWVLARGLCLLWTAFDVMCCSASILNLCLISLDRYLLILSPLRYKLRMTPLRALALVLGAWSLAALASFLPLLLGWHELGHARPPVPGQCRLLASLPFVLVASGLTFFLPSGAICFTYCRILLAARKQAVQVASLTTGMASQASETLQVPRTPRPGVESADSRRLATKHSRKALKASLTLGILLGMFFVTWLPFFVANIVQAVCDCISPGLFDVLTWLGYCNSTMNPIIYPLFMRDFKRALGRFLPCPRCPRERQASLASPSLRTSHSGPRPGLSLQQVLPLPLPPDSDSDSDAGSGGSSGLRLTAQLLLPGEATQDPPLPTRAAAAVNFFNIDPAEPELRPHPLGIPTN

Compound | Ki
CCc1cccc2c(S(=O)(=O)c3ccccc3)cn(CCN(C)C)c12 [Example 13, N,N-dimethyl-N-{2-[7-ethyl-3-(phenylsulfonyl)-1H-indol-1-yl]ethyl}amine] | 0.065 µM
CN(C)CCn1cc(S(=O)(=O)c2ccccc2)c2ccc(Cl)cc21 [Example 51] | 0.042 µM
CN(C)CCn1cc(S(=O)(=O)c2ccccc2)c2c(F)cccc21 [Example 9, N,N-dimethyl-N-{2-[4-fluoro-3-(phenylsulfonyl)-1H-indol-1-yl]ethyl}amine] | 0.098 µM
Cc1ccc(S(=O)(=O)c2cn(CCN(C)C)c3ccccc23)cc1 [Example 52] | 0.057 µM
CN(C)CCn1cc(S(=O)(=O)c2ccccc2)c2cc(F)ccc21 [Example 47] | 0.044 µM
COc1ccc2c(S(=O)(=O)c3ccccc3)cn(CCN(C)C)c2c1 [Example 48] | 0.023 µM
COc1cccc2c(S(=O)(=O)c3ccccc3)cn(CCN(C)C)c12 [Example 23] | 0.025 µM
COc1ccc2c(c1)c(S(=O)(=O)c1ccccc1)cn2CCN(C)C [Example 20] | 0.023 µM
CN(C)CCn1cc(S(=O)(=O)c2ccccc2)c2ccccc21 [Example 3] | 0.02 µM
CN(C)CCn1cc(S(=O)(=O)c2ccccc2)c2ccc(F)cc21 [Example 50] | 0.046 µM
Cc1c(S(=O)(=O)c2ccccc2)c2ccccc2n1CCN(C)C [Example 24, N,N-dimethyl-N-{2-[2-methyl-3-(phenylsulfonyl)-1H-indol-1-yl]ethyl}amine] | 0.018 µM

Same assay, conditions: 1 μM test compound, displacement of [3H]-LSD; read-out: % Inhibition at 1 μM

Compound | inhibition at 1 µM
COc1ccc2c(c1)c(S(=O)(=O)c1ccccc1)cn2CCN [Example 21, 2-[5-methoxy-3-(phenylsulfonyl)-1H-indol-1-yl]ethylamine] | 86%

Same assay, conditions: [3H]-LSD 3.0 nM, Hela cell membranes, 120 min at room temperature; read-out: 5-HT6 Binding Ki

Compound | Ki
CN(C)CCn1cc(S(=O)(=O)c2ccccc2)c2cccc(Cl)c21 [Example 10, N,N-dimethyl-N-{2-[7-chloro-3-(phenylsulfonyl)-1H-indol-1-yl]-ethyl}amine] | 0.098 µM
CN(C)CCCn1cc(S(=O)(=O)c2ccccc2)c2ccccc21 [Example 15, N,N-dimethyl-3-[3-(phenylsulfonyl)-1H-indol-1-yl]propan-1-amine] | 0.169 µM
CN(C)CCn1cc(S(=O)(=O)c2cccc3ccccc23)c2ccccc21 [Example 26] | 0.004 µM
CN(C)CCn1nc(S(=O)(=O)c2cccc(F)c2)c2ccccc21 [Example 37] | 0.055 µM
Cc1ccc(S(=O)(=O)c2cn(CCN)c3ccccc23)cc1 [Example 45] | 0.025 µM
CN(C)CCn1cc(S(=O)(=O)Cc2ccccc2)c2ccccc21 [Example 31] | 1.01 µM
NCCn1cc(S(=O)(=O)c2ccccc2)c2ccccc21 [Example 40, 2-[3-(phenylsulfonyl)-1H-indol-1-yl]ethylamine] | 0.025 µM
COc1cccc2c1c(S(=O)(=O)c1ccccc1)cn2CCN(C)C [Example 53] | 0.152 µM
CN(C)CCn1cc(S(=O)(=O)c2ccccc2)c2cc(C#N)ccc21 [Example 8, 1-[2-(dimethylamino)ethyl]-3-(phenylsulfonyl)-1H-indole-5-carbonitrile] | 0.045 µM
O=S(=O)(Cc1ccccc1)c1cn(CCN2CCCCC2)c2ccccc12 [Example 32] | 0.644 µM
Cc1cccc2c1c(S(=O)(=O)c1ccccc1)cn2CCN(C)C [Example 12, N,N-dimethyl-N-{2-[4-methyl-3-(phenylsulfonyl)-1H-indol-1-yl]ethyl}amine] | 0.183 µM
NCCCn1cc(S(=O)(=O)c2ccccc2)c2ccccc21 [Example 5, 3-[3-(phenylsulfonyl)-1H-indol-1-yl]propan-1-amine] | 0.092 µM
CN(C)CCn1cc(S(=O)(=O)c2ccccc2)c2c(Cl)cccc21 [Example 11, N,N-dimethyl-N-{2-[4-chloro-3-(phenylsulfonyl)-1H-indol-1-yl]-ethyl}amine] | 0.134 µM
NCCn1nc(S(=O)(=O)c2ccccc2)c2ccccc21 [Example 36, 2-[3-(phenylsulfonyl)-1H-indazol-1-yl]ethylamine] | 0.044 µM
CN(C)CCn1cc(S(=O)(=O)c2cccc(F)c2)c2ccccc21 [Example 25] | 0.013 µM
CN(C)CCn1cc(S(=O)(=O)c2ccccc2)c2ccc(-c3ccccc3)cc21 [Example 27] | 0.023 µM
CN(C)CCn1cc(S(=O)(=O)c2ccccc2OC(F)(F)F)c2ccccc21 [Example 57] | 0.016 µM
Cn1ccnc1S(=O)(=O)c1cn(CCN)c2ccccc12 [Example 46] | 0.573 µM
CN(C)CCCCn1cc(S(=O)(=O)c2ccccc2)c2ccccc21 [Example 7] | 0.16 µM
Cc1ccc2c(S(=O)(=O)c3ccccc3)cn(CCN(C)C)c2c1 [Example 49] | 0.051 µM
COc1ccc2c(c1)c(S(=O)(=O)c1ccccc1)cn2CCNCc1ccccc1 [Example 39] | 0.059 µM
NCCn1cc(S(=O)(=O)c2ccccc2)c2ccc(Cl)cc21 [Example 44, 2-[6-chloro-3-(phenylsulfonyl)-1H-indol-1-yl]ethylamine] | 0.141 µM
CN(C)CCn1cc(S(=O)(=O)c2ccccc2)c2cccc(C#N)c21 [Example 14, 1-[2-(dimethylamino)ethyl]-3-(phenylsulfonyl)-1H-indole-7-carbonitrile] | 0.755 µM
CN(C)CCn1nc(S(=O)(=O)c2ccccc2)c2ccccc21 [Example 35] | 0.074 µM
CN(C)CCn1cc(S(=O)(=O)c2c(Cl)nc3sccn23)c2ccccc21 [Example 58] | 0.006 µM

Same assay, conditions: read-out: % Inhibition at 1 μM

Compound | inhibition at 1 µM
COc1ccc2c(c1)c(S(=O)(=O)c1ccccc1)cn2CCN(C)C [Example 20] | 88%
CN(C)CCn1cc(S(=O)(=O)c2ccccc2)c2cccc(C#N)c21 [Example 14, 1-[2-(dimethylamino)ethyl]-3-(phenylsulfonyl)-1H-indole-7-carbonitrile] | 35%

Tested on: not given
Assay: not given
Settings: not given

Compound | melting point
CN(C)CCn1cc(S(=O)(=O)c2ccccc2)c2cccc(Cl)c21 [Example 10, N,N-dimethyl-N-{2-[7-chloro-3-(phenylsulfonyl)-1H-indol-1-yl]-ethyl}amine] | 240 to 242 °C
CN(C)CCCn1cc(S(=O)(=O)c2ccccc2)c2ccccc21 [Example 15, N,N-dimethyl-3-[3-(phenylsulfonyl)-1H-indol-1-yl]propan-1-amine] | 207 to 209 °C
CN(C)CCn1cc(S(=O)(=O)c2cccc3ccccc23)c2ccccc21 [Example 26] | 239 to 241 °C
CN(C)CCn1nc(S(=O)(=O)c2cccc(F)c2)c2ccccc21 [Example 37] | 192 to 194 °C
Cc1ccc(S(=O)(=O)c2cn(CCN)c3ccccc23)cc1 [Example 45] | 178 to 183 °C
CCc1cccc2c(S(=O)(=O)c3ccccc3)cn(CCN(C)C)c12 [Example 13, N,N-dimethyl-N-{2-[7-ethyl-3-(phenylsulfonyl)-1H-indol-1-yl]ethyl}amine] | 213 to 216 °C
CN(C)CCn1cc(S(=O)(=O)c2ccccc2)c2ccc(Cl)cc21 [Example 51] | 104 to 106 °C
CN(C)CCn1cc(S(=O)(=O)c2ccccc2)c2c(F)cccc21 [Example 9, N,N-dimethyl-N-{2-[4-fluoro-3-(phenylsulfonyl)-1H-indol-1-yl]ethyl}amine] | 201 to 203 °C
Cc1ccc(S(=O)(=O)c2cn(CCN(C)C)c3ccccc23)cc1 [Example 52] | > 250 °C
CN(C)CCn1cc(S(=O)(=O)Cc2ccccc2)c2ccccc21 [Example 31] | 219 to 220 °C
NCCn1cc(S(=O)(=O)c2ccccc2)c2ccccc21 [Example 40, 2-[3-(phenylsulfonyl)-1H-indol-1-yl]ethylamine] | 220 to 221 °C
CN(C)CCn1cc(S(=O)(=O)c2ccccc2)c2cc(F)ccc21 [Example 47] | 103 to 104 °C
COc1ccc2c(S(=O)(=O)c3ccccc3)cn(CCN(C)C)c2c1 [Example 48] | 121 to 122 °C
COc1cccc2c1c(S(=O)(=O)c1ccccc1)cn2CCN(C)C [Example 53] | 238 to 240 °C
COc1cccc2c(S(=O)(=O)c3ccccc3)cn(CCN(C)C)c12 [Example 23] | 236 to 238 °C
CN(C)CCn1cc(S(=O)(=O)c2ccccc2)c2cc(C#N)ccc21 [Example 8, 1-[2-(dimethylamino)ethyl]-3-(phenylsulfonyl)-1H-indole-5-carbonitrile] | 280 °C (dec.)

Compound | melting point
O=S(=O)(Cc1ccccc1)c1cn(CCN2CCCCC2)c2ccccc12 [Example 32] | 223 to 225 °C
Cc1cccc2c1c(S(=O)(=O)c1ccccc1)cn2CCN(C)C [Example 12, N,N-dimethyl-N-{2-[4-methyl-3-(phenylsulfonyl)-1H-indol-1-yl]ethyl}amine] | 220 to 221 °C
CN(C)CCn1cc(S(=O)(=O)c2ccccc2)c2c(Cl)cccc21 [Example 11, N,N-dimethyl-N-{2-[4-chloro-3-(phenylsulfonyl)-1H-indol-1-yl]-ethyl}amine] | 209 to 211 °C
NCCn1nc(S(=O)(=O)c2ccccc2)c2ccccc21 [Example 36, 2-[3-(phenylsulfonyl)-1H-indazol-1-yl]ethylamine] | 208 to 209 °C
CN(C)CCn1cc(S(=O)(=O)c2cccc(F)c2)c2ccccc21 [Example 25] | 210 to 211 °C
COc1ccc2c(c1)c(S(=O)(=O)c1ccccc1)cn2CCN(C)C [Example 20] | 214 to 216 °C
Cn1ccnc1S(=O)(=O)c1cn(CCN)c2ccccc12 [Example 46] | 158 to 160 °C
CN(C)CCCCn1cc(S(=O)(=O)c2ccccc2)c2ccccc21 [Example 7] | 184 to 187 °C
Cc1ccc2c(S(=O)(=O)c3ccccc3)cn(CCN(C)C)c2c1 [Example 49] | 131 to 132 °C
NCCn1cc(S(=O)(=O)c2ccccc2)c2ccc(Cl)cc21 [Example 44, 2-[6-chloro-3-(phenylsulfonyl)-1H-indol-1-yl]ethylamine] | 200 to 206 °C
CN(C)CCn1cc(S(=O)(=O)c2ccccc2)c2cccc(C#N)c21 [Example 14, 1-[2-(dimethylamino)ethyl]-3-(phenylsulfonyl)-1H-indole-7-carbonitrile] | 134 to 136 °C
CN(C)CCn1cc(S(=O)(=O)c2ccccc2)c2ccc(F)cc21 [Example 50] | 100 to 102 °C
Cc1c(S(=O)(=O)c2ccccc2)c2ccccc2n1CCN(C)C [Example 24, N,N-dimethyl-N-{2-[2-methyl-3-(phenylsulfonyl)-1H-indol-1-yl]ethyl}amine] | 258 to 260 °C
COc1ccc2c(c1)c(S(=O)(=O)c1ccccc1)cn2CCN [Example 21, 2-[5-methoxy-3-(phenylsulfonyl)-1H-indol-1-yl]ethylamine] | 198 to 201 °C
CN(C)CCn1cc(S(=O)(=O)c2c(Cl)nc3sccn23)c2ccccc21 [Example 58] | 138 to 140 °C
